Data: patent US20070149523A1, “Thiazole Analogues and Uses Thereof” (priority 2005, published 2007)

How the values were obtained:
VEGF-R1 = target: T1, VEGF-R1 (Homo sapiens, UniProt P17948); assay: In vitro protein kinase assay (radioisotopic 33P, FlashPlate); assay type: biochemical; settings: recombinant human kinase
T1 construct: made in house; host or cells: Sf9 insect cells (baculovirus)
Experimental: (§1) The effect of the thiazole derivatives was tested on recombinant, human protein kinases in in vitro protein kinase assays.
(§2) The protein kinases were expressed in Sf9 insect cells as human recombinant GST-fusion proteins or as His-tagged proteins by means of the baculovirus expression system.
(§3) The kinase activity was measured with a radioisotopic protein kinase assay by measuring the incorporation of ^33P-phosphate into proteins or peptide substrates. The assays were performed in FlashPlate™ microtiter scintillation plates and incorporation of ^33P-phosphate was determined with a microplate scintillation counter.

IRAK4 = target: T2, IRAK4 (Homo sapiens, UniProt Q9NWZ3); assay: as above; assay type: biochemical; settings: recombinant human kinase
T2 construct: made in house; host or cells: Sf9 insect cells (baculovirus)
T2 sequence (Q9NWZ3 1-460): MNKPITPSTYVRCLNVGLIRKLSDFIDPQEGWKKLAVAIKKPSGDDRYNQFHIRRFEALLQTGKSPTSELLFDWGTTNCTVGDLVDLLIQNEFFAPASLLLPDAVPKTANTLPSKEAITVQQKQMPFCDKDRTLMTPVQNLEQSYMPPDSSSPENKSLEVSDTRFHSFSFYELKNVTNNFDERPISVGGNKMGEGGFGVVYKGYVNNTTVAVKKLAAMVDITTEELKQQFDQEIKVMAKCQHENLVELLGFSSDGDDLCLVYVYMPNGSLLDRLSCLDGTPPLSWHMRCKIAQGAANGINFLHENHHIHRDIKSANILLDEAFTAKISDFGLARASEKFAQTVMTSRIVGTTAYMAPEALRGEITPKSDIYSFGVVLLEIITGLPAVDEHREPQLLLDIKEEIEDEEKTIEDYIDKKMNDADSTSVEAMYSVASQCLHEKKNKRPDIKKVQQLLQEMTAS
Experimental: as §1, §2, §3

PDGF-Rα = target: T3, PDGF-Rα (Homo sapiens, UniProt P16234); assay: as above; assay type: biochemical; settings: recombinant human kinase
T3 construct: made in house; host or cells: Sf9 insect cells (baculovirus)
Experimental: as §1, §2, §3

VEGF-R3 = target: T4, VEGF-R3 (Homo sapiens, UniProt P35916); assay: as above; assay type: biochemical; settings: recombinant human kinase
T4 construct: made in house; host or cells: Sf9 insect cells (baculovirus)
T4 sequence (P35916 25-1363): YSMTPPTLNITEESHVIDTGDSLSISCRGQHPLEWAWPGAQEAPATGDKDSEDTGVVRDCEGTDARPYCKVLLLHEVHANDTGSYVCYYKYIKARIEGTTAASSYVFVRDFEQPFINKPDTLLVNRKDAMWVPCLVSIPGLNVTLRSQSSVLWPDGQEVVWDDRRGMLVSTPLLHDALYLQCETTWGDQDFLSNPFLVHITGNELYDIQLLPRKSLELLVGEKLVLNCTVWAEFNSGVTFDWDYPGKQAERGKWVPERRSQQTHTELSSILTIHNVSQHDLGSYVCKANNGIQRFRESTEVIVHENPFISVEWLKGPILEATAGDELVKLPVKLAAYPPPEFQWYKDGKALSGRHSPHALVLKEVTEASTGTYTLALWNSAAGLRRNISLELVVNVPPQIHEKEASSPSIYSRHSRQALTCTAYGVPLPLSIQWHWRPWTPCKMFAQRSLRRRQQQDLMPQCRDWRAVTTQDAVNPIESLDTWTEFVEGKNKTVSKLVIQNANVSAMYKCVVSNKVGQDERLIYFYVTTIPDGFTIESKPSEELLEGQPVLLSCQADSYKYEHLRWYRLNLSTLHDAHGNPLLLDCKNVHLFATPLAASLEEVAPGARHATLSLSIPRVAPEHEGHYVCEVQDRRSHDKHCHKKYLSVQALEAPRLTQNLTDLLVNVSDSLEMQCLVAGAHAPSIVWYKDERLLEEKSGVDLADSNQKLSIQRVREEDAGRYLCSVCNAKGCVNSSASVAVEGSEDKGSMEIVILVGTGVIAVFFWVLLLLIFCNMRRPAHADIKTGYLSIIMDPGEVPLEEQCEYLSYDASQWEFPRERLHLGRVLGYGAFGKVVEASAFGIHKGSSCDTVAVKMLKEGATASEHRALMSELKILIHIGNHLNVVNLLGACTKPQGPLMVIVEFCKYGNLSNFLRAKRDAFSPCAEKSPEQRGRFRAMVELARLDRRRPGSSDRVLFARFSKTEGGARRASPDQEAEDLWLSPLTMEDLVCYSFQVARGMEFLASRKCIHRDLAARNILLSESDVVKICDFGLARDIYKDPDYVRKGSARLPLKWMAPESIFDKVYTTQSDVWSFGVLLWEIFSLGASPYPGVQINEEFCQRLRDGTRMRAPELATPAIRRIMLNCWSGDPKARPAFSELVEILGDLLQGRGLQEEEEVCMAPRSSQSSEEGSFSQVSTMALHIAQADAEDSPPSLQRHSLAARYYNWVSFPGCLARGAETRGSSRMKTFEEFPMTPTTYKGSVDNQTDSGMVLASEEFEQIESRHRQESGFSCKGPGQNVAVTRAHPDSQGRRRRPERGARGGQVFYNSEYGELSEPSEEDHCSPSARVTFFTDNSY
Experimental: as §1, §2, §3

LCK = target: T5, LCK (Homo sapiens, UniProt P06239); assay: as above; assay type: biochemical; settings: recombinant human kinase
T5 construct: made in house; host or cells: Sf9 insect cells (baculovirus)
Experimental: as §1, §2, §3

TIE2 = target: T6, TIE2 (Homo sapiens, UniProt Q02763); assay: as above; assay type: biochemical; settings: recombinant human kinase
T6 construct: made in house; host or cells: Sf9 insect cells (baculovirus)
T6 sequence (Q02763 23-1124): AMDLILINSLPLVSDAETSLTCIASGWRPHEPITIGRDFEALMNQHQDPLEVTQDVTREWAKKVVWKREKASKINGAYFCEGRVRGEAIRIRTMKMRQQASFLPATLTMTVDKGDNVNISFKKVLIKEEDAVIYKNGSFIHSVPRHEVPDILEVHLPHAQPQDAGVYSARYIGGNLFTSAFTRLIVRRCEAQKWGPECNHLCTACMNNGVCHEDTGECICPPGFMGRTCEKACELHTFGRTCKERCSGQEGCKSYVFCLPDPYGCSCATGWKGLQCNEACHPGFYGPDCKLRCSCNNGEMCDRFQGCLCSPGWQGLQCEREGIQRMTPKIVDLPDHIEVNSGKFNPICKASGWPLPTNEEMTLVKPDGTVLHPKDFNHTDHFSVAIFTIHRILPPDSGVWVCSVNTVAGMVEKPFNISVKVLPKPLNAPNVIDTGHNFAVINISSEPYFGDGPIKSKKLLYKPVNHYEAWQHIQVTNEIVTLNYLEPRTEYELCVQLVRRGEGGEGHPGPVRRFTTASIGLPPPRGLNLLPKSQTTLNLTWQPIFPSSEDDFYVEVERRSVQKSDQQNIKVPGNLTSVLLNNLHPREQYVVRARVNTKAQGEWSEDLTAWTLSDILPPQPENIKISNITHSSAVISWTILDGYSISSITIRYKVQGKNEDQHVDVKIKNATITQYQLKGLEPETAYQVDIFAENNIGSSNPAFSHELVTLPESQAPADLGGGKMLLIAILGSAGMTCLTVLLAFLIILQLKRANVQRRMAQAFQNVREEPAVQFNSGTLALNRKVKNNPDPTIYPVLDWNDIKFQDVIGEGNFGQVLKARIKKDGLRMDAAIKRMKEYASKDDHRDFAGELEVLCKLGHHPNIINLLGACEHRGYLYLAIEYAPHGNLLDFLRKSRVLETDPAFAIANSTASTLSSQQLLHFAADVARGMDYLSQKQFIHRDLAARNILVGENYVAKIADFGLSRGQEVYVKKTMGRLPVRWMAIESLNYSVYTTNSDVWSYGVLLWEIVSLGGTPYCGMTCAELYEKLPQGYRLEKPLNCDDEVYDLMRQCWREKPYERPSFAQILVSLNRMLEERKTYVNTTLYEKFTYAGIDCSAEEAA
Experimental: as §1, §2, §3

Aurora A = target: T7, Aurora A (Homo sapiens, UniProt O14965); assay: as above; assay type: biochemical; settings: recombinant human kinase
T7 construct: made in house; host or cells: Sf9 insect cells (baculovirus)
T7 sequence (O14965 1-403): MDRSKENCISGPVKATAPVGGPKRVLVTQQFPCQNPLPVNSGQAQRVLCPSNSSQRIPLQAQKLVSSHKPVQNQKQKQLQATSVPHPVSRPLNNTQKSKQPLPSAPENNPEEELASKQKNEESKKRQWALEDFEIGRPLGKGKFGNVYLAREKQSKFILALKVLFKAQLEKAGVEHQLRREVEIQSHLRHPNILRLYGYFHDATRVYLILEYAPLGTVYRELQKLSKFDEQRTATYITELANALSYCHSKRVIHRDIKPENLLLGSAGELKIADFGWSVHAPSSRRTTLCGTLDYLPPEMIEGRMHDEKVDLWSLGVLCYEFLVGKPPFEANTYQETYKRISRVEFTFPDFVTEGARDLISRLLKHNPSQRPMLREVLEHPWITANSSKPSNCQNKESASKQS
Experimental: as §1, §2, §3

KIT = target: T8, KIT (Homo sapiens, UniProt P10721); assay: as above; assay type: biochemical; settings: recombinant human kinase
T8 construct: made in house; host or cells: Sf9 insect cells (baculovirus)
Experimental: as §1, §2, §3

RET = target: T9, RET (Homo sapiens, UniProt P07949); assay: as above; assay type: biochemical; settings: recombinant human kinase
T9 construct: made in house; host or cells: Sf9 insect cells (baculovirus)
Experimental: as §1, §2, §3

TRK-A = target: T10, TRK-A (Homo sapiens, UniProt P04629); assay: as above; assay type: biochemical; settings: recombinant human kinase
T10 construct: made in house; host or cells: Sf9 insect cells (baculovirus)
Experimental: as §1, §2, §3

EGF-R = target: T11, EGF-R (Homo sapiens, UniProt P00533); assay: as above; assay type: biochemical; settings: recombinant human kinase
T11 construct: made in house; host or cells: Sf9 insect cells (baculovirus)
T11 sequence (P00533 25-1210): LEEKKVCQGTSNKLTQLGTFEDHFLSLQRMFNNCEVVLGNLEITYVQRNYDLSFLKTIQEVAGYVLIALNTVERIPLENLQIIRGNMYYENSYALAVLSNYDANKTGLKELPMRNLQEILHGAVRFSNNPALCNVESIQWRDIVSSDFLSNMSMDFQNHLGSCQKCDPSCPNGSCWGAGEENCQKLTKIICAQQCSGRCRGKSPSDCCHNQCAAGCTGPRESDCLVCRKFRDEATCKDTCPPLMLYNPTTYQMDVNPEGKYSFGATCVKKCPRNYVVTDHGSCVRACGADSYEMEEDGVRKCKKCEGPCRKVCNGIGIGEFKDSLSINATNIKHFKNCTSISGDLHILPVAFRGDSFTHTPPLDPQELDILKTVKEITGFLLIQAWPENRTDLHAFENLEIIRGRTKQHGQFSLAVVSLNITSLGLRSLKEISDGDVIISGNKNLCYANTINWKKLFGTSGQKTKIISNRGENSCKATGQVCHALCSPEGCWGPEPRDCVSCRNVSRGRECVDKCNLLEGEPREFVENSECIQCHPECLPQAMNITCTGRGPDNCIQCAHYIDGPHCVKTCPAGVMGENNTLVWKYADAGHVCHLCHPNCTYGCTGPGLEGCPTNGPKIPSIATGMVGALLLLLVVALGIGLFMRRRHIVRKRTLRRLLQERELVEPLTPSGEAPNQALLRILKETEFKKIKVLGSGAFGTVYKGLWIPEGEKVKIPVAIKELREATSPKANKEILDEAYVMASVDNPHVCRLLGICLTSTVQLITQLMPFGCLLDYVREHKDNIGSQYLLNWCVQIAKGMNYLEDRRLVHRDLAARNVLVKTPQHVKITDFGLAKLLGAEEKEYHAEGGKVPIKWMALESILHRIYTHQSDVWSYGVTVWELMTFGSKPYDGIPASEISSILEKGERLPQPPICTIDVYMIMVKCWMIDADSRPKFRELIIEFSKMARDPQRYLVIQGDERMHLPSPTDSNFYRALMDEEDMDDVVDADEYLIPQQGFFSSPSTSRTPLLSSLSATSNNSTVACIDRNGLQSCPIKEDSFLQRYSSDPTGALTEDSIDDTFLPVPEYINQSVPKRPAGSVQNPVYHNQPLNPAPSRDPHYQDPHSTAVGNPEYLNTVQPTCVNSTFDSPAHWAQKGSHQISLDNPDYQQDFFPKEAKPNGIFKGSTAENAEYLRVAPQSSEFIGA
Experimental: as §1, §2, §3

FLT3 = target: T12, FLT3 (Homo sapiens, UniProt P36888); assay: as above; assay type: biochemical; settings: recombinant human kinase
T12 construct: made in house; host or cells: Sf9 insect cells (baculovirus)
T12 sequence (P36888 27-993): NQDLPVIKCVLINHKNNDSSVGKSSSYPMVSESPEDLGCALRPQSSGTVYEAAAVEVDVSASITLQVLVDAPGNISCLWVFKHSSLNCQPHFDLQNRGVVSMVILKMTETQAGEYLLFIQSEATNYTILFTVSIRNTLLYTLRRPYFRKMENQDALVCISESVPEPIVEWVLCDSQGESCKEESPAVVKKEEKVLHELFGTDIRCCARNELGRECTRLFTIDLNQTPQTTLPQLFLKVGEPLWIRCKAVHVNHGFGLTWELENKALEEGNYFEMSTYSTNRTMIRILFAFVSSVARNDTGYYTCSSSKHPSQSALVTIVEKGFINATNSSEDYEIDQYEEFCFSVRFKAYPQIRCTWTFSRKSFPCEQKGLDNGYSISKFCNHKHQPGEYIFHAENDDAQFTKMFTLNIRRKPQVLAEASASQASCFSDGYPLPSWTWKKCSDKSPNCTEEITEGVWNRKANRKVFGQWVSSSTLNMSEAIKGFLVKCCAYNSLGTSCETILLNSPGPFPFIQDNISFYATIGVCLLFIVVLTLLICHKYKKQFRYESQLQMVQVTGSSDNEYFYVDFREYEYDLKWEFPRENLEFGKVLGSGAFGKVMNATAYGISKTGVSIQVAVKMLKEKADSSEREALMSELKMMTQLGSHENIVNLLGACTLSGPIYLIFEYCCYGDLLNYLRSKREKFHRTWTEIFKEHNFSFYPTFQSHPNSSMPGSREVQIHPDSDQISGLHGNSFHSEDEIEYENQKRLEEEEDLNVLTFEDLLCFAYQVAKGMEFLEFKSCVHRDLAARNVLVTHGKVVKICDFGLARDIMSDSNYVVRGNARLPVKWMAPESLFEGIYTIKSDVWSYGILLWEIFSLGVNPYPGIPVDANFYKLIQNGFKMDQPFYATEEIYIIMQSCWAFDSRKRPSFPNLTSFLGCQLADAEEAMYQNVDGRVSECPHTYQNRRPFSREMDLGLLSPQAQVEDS
Experimental: as §1, §2, §3

Aurora B [1] = target: T13, Aurora B (Homo sapiens, UniProt Q96GD4); assay: as above; assay type: biochemical; design: made in house; host or cells: Sf9 insect cells (baculovirus); settings: recombinant human kinase
T13 sequence (Q96GD4 whole entry): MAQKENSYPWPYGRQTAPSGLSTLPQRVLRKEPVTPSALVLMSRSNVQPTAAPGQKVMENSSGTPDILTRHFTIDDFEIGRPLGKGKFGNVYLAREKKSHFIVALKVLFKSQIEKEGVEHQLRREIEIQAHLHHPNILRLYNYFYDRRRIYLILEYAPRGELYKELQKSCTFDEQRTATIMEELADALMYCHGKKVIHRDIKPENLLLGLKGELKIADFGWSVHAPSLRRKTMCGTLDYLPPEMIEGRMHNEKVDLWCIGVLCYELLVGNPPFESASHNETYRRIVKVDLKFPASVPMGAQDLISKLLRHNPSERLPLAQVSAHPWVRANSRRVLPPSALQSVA
Experimental: as §1, §2, §3

PDGF-Rβ [2] = target: T14, PDGF-Rβ (Homo sapiens, UniProt P09619); assay: as above; assay type: biochemical; design: made in house; host or cells: Sf9 insect cells (baculovirus); settings: recombinant human kinase
Experimental: as §1, §2, §3
Target sequence in this assay (P09619 33-1106): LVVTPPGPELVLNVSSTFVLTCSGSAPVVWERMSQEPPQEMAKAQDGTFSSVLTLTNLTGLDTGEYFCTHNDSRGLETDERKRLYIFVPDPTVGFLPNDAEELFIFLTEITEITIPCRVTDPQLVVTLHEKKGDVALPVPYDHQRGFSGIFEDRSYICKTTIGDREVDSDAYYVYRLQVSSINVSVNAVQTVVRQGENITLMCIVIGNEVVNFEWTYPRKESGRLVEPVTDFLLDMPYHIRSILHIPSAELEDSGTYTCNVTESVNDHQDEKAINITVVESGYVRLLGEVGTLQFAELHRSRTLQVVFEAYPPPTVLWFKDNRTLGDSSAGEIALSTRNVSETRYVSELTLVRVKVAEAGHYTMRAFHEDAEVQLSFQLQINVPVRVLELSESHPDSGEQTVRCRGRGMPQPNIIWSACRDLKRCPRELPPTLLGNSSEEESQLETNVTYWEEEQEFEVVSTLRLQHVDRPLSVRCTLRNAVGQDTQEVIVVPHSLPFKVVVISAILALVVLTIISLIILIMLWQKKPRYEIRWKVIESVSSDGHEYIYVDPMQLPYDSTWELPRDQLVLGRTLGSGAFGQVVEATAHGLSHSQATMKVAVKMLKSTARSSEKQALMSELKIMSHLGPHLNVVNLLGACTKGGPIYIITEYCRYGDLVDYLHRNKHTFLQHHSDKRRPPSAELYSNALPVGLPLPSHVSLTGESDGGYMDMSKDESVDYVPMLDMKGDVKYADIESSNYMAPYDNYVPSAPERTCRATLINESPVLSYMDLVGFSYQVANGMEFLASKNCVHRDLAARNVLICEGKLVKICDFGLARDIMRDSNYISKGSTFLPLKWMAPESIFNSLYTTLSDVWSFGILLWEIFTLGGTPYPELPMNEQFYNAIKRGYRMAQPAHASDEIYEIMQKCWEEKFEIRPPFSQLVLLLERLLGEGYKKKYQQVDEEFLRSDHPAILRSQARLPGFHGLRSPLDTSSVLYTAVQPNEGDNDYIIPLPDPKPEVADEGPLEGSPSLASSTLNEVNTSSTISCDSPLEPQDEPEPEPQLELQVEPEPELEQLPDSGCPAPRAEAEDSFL

VEGF-R2 [3] = target: T15, VEGF-R2 (Homo sapiens, UniProt P35968); assay: as above; assay type: biochemical; design: made in house; host or cells: Sf9 insect cells (baculovirus); settings: recombinant human kinase
Experimental: as §1, §2, §3

PDGF-Rβ [4] = target: T14, PDGF-Rβ; assay: Cellular Receptor Tyrosine Kinase Assay (autophosphorylation, sandwich ELISA); assay type: cell-based; design: host or cells: unnamed cell line; settings: ligand-induced receptor autophosphorylation in cells
Experimental: (§4) The effect of thiazole derivatives was tested by determining the inhibition of different receptor tyrosine kinases (RTKs) in various cell lines which expressed the following growth factor receptors: EGF-R, PDGF-R, TIE2, IGF-1R, EPHB4, and VEGF-R2. Receptor autophosphorylation was induced by specific ligands for each receptor. […] Test compounds were applied to cells prior to stimulation. Cells were lysed using a standard lysis buffer preserving the distinct phosphoprotein levels. RTK-phosphorylation was quantified via sandwich ELISA using receptor-specific capture antibodies and a phosphotyrosine antibody.
(§5) Sigmoidal inhibitor curves based on relative inhibition compared with phosphorylation levels under high control conditions were generated which allowed the determination of IC50 values for each test compound.
Target sequence in this assay (P09619 33-1106, species assumed): as the sequence (P09619 33-1106) above

VEGF-R2 [5] = target: T15, VEGF-R2; assay: as above; assay type: cell-based; design: host or cells: unnamed cell line; settings: ligand-induced receptor autophosphorylation in cells
Experimental: as §4, §5

Aurora B [6] = target: T13, Aurora B; assay: Cellular Aurora-B Kinase Assay (endoreduplication of genomic DNA, PI/FACS); assay type: cell-based; design: endogenous in cells; host or cells: HT29 colon carcinoma cells; settings: HT29 colon-carcinoma cells, 3 days treatment, EndoR-population
Experimental: The effect of thiazole derivatives was tested in a cellular Aurora-B assay by measuring the effect of the test compounds on the endoreduplication (EndoR) of genomic DNA. Endoreduplication is detectable in cells as DNA-content higher then 4 n. Propidium Iodine (PI) was used to quantify the DNA content using a fluorescence activated cell sorter (FACS).
In the experiment, HT29 colon-carcinoma cells were treated with test compounds at different concentrations for 3 days. On day 5 cells were harvested and fixed in methanol. On day 6 cells were rehydrated and incubated with RNAse A and PI. Incorporated PI was detected by FACS measuring fluorescence emission at 650 nm upon excitation at 488 nm. For each compound concentration the percentage of EndoR-population as compared to the whole cell population was determined. For estimation of IC50 values of Aurora-B inhibition the percentages of EndoR-populations were plotted versus compound concentrations.

SMILES	IC50 (VEGF-R1) [nM]	IC50 (IRAK4) [nM]	IC50 (PDGF-Rα) [nM]	IC50 (VEGF-R3) [nM]	IC50 (LCK) [nM]	IC50 (TIE2) [nM]	IC50 (Aurora A) [nM]	IC50 (KIT) [nM]	IC50 (RET) [nM]	IC50 (TRK-A) [nM]	IC50 (EGF-R) [nM]	IC50 (FLT3) [nM]	IC50 (Aurora B [1]) [nM]	IC50 (PDGF-Rβ [2]) [nM]	IC50 (VEGF-R2 [3]) [nM]	IC50 (PDGF-Rβ [4]) [nM]	IC50 (VEGF-R2 [5]) [nM]	IC50 (Aurora B [6]) [nM]
COc1cc2c(Nc3ncc(CCC(=O)Nc4ccc(F)cc4)s3)ncnc2cc1OCCCN1CCCC1 [Compound 9, N-(4-fluorophenyl)-3-(2-(6-methoxy-7-(3-(pyrrolidin-1-yl)propoxy)quinazolin-4-ylamino)thiazol-5-yl)propanamide]	640	2200	1000	110	2300	430	710	110	880	430	10000	600	470	1100	96	–	–	–
COc1cc2ncnc(Nc3ncc(CCC(=O)Nc4ccc(F)cc4)s3)c2cc1OC [Compound 8, 3-(2-(6,7-dimethoxyquinazolin-4-ylamino)thiazol-5-yl)-N-(4-fluorophenyl)propanamide]	–	–	–	1100	–	14000	6000	–	–	–	61000	5400	2300	27000	960	–	–	–
COC(=O)CCc1cnc(Nc2ncnc3cc(OC)c(OC)cc23)s1 [Compound 3, 3-[2-(6,7-dimethoxy-quinazolin-4-ylamino)-thiazol-5-yl]-propionic acid methyl ester]	–	–	–	560	–	3400	990	–	–	–	4000	8900	2400	11000	390	–	–	–
COc1cc2c(Nc3ncc(CCNC(=O)c4ccccc4)s3)ncnc2cc1OCCCN1CCCC1 [Compound 2, N-(2-{2-[6-methoxy-7-(3-pyrrolidin-1-yl-propoxy)-quinazolin-4-ylamino]-thiazol-5-yl}-ethyl)-benzamide]	–	–	–	2800	–	1000	160	–	–	–	20000	11000	620	15000	2000	–	–	–
COc1cc2c(Nc3ncc(CCNC(=O)c4cccc(F)c4)s3)ncnc2cc1OCCCN1CCCC1 [Compound 1, 3-fluoro-N-(2-{2-[6-methoxy-7-(3-pyrrolidin-1-yl-propoxy)-quinazolin-4-ylamino]-thiazol-5-yl}-ethyl)-benzamide]	–	–	–	2200	–	900	100	–	–	–	–	5500	360	11000	2600	1100	14000	1100
COc1cc2ncnc(Nc3ncc(CCC(=O)Nc4cccc(F)c4)s3)c2cc1OC [Compound 7, 3-(2-(6,7-dimethoxyquinazolin-4-ylamino)thiazol-5-yl)-N-(3-fluorophenyl)propanamide]	–	–	–	1100	–	21000	1300	–	–	–	43000	25000	2900	41000	1500	–	–	–
COc1cc2c(Nc3ncc(CCC(=O)Nc4cccc(F)c4)s3)ncnc2cc1OCCCN1CCCC1 [Compound 5, N-(3-fluoro-phenyl)-3-{2-[6-methoxy-7-(3-pyrrolidin-1-yl-propoxy)-quinazolin-4-ylamino]-thiazol-5-yl}-propionamide]	–	–	–	74	–	360	400	–	–	–	29000	380	610	560	65	–	–	–
